Data from patent publication US8455523B2, “Compositions and methods for treating hyperlipidemias” (The Research Foundation of State University of New York, priority 2010, dated 2013).

Key:
[1] = system: Reversa mice
Protocol: FIG. 11. Reversa animals were injected with plpC every other day for one week. Lovastatin, T-090317 and WY14643 were administered by oral gavage everyday for 30 days after the first injection. Animals were sacrificed on day 30 and plasma and livers were harvested and analyzed. * represent comparison to PBS injected animals and # represent comparisons to plpC control.
Animals: Mttp^tm2Sgy LdIr^tm1Her Apob^tm2Sgy Tg(Mx1-cre)1Cgn/J mice (Reversa) (stock number 004192) were obtained from Jackson Laboratories. Male reversa mice were used to study the effect of mttp gene deletion on plasma and tissue lipids. These animals are transgenic for apolipoprotein B, LDLR^−/− and floxed at exon 1 of the mttp locus. In addition, these mice express cre recombinase under the control of the Mx1 promoter, which is induced after intraperitoneal injection of polyinosinic polycytidylic ribonucleic acid (plpC—Sigma) in the liver, spleen and intestine. Injection of plpC activates the cre recombinase and deletes the mttp gene in the liver and intestines. Reversa mice were injected with either PBS or plpC. Mice injected with plpC were orally gavaged with DMSO (Sigma-Aldrich D8418), DMSO+Lovastatin (50 mg/kg/day) (Calbiochem 438186), DMSO+T0901317 (50 mg/kg/day) (Calbiochem 575310), or DMSO+WY14643 (10 mg/kg/day) (Calbiochem 681725). Mice injected with plpC were also injected with either PBS or Ω-3 fatty acids (SUNY Downstate Medical Center). All animals were given supplemental treatments for 30 days.
All animals were kept in 07:00-19:00 h lighting schedule. […] Food was withdrawn 16 h before the sacrifice of the mice. On the day of the experiment, mice were anesthetized and blood was collected from the heart. Liver was collected, washed in ice-cold PBS, cut into small pieces and used for lipid extraction, histological staining, to measure different protein activities/quantities and for mRNA analysis. Lipids were extracted from the tissue homogenates following the Bligh and Dyer method. Triglyceride (Infinity TM Triglyceride, TR22421) and total cholesterol (Infinity TM Cholesterol, TR13421) levels in the tissues were determined using commercial kits (Thermo Scientific). Free cholesterol and free fatty acid levels were measured using kits from Wako Chemicals (Germany). Esterified cholesterol was calculated by subtracting the free cholesterol from the total cholesterol.
To determine whether accumulation of hepatic triglyceride and free cholesterol is related to increases in plasma AST/ALT, we sought to reduce these lipids using different chemical compounds of known physiologic effects. Mice injected with plpC were orally gavaged with DMSO, DMSO+Lovastatin (50 mg/kg/day), DMSO+T0901317 (50 mg/kg/day), or DMSO+WY14643 (10 mg/kg/day). Lovastatin (Lova), an HMG-CoA reductase (HMGR) inhibitor, and T0901317 (T0), an LXR agonist, are expected to decrease hepatic free cholesterol by inhibiting endogenous cholesterol synthesis and increasing cholesterol efflux, respectively. WY14643 (WY), a PPARα agonist, increases β-oxidation of fatty acids and lowers hepatic triglycerides.
To evaluate the efficacy of Ω-3 FA in reducing hepatic triglyceride, plpC injected mice were treated with intraperitoneal injection of Ω-3 FA (3 mg/kg/2 day) or Ω-3 FA and Lova.

[2] = biological target: T1, MTP (Mus musculus, UniProt O08601); assay: Determination of MTP activity in tissues (liver homogenates of treated mice); type: in vivo; settings: Reversa mice, plpC vs PBS
T1 construct: small pieces (0.1 g) of liver and ˜1-cm segments of proximal small intestine were homogenized; from tissue; host or cells: mouse liver (C57BL/6J; Reversa mice in some experiments); supernatant of ultracentrifuged homogenate
T1 sequence (O08601 22-894): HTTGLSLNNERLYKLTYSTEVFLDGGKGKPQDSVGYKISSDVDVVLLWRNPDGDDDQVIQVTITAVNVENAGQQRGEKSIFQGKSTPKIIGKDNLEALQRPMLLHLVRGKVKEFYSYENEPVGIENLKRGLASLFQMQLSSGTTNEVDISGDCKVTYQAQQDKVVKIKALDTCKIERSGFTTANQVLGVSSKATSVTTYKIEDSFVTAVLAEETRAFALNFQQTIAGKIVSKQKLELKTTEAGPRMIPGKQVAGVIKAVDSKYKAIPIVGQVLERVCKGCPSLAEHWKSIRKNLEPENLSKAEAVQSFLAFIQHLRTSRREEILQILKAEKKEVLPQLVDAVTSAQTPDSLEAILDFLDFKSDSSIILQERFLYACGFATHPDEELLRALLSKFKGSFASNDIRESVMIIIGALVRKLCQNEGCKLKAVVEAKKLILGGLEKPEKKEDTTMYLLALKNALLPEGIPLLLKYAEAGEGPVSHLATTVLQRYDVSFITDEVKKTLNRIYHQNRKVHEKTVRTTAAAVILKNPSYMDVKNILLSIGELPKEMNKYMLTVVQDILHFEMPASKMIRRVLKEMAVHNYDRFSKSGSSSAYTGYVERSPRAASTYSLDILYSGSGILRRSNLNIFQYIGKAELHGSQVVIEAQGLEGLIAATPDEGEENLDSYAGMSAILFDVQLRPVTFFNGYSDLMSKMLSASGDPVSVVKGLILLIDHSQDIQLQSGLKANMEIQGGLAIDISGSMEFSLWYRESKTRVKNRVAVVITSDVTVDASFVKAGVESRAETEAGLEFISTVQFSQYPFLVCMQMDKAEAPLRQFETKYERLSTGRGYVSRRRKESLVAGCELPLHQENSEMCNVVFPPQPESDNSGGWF
T1 sequence (P09103 21-509 partner limits assumed): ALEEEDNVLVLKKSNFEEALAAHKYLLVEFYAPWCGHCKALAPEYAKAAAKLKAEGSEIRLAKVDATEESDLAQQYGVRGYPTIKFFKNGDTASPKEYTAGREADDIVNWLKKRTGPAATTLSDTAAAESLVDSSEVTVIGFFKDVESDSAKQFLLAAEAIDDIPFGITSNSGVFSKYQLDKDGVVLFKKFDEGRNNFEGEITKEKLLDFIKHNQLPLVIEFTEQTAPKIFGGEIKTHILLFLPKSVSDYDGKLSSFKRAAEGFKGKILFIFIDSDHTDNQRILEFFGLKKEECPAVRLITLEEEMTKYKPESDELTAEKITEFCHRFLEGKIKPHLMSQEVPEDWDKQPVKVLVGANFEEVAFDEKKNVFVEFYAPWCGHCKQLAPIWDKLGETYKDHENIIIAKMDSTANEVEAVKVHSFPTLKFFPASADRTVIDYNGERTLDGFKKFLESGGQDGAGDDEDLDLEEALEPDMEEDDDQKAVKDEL
Protocol: After extensive washes with ice-cold PBS, small pieces (0.1 g) of liver and ˜1-cm segments of proximal small intestine were homogenized with 1 ml of ice-cold 1 mM Tris-HCl, pH 7.6, 1 mM EGTA, and 1 mM MgCl2 buffer in a glass homogenizer. The homogenates were centrifuged (SW55 Ti rotor, 50,000 rpm, 10° C., 1 h), and supernatants were used for MTP assay as described before (41; 42) using a kit (Chylos, Inc.).

[3] = system: C57Bl/6J mice fed western diet; assay: MTP inhibitor CP-346086 with or without lovastatin or WY14643 in western diet fed mice: plasma/hepatic lipids, AST/ALT; type: in vivo; settings: WD 8 weeks
Protocol: FIGS. 4a and 4b. Effect of MTP inhibitor (CP-34086) on plasma lipids and lipoproteins in C57Bl/6J mice fed western diet ad libitum for 8 weeks. MTP inhibitor solubilzed in DMSO was administered orally for one week (15 mg/kg/day) along with either DMSO (MTPi), lovastatin (50 mg/kg/day), or WY14643 (10 mg/kg/day). Control mice were gavaged with DMSO only.
FIGS. 5a and 5b. Liver samples from FIG. 4 were used to measure MTP activity (A) and hepatic lipids (B-E). Stars on MPTi group represent comparison between Control and MTPi groups.
Control group (n=4) received daily oral gavage of DMSO alone. MTPi group received 15 mg/kg/day MTP inhibitor CP-346086 (MTPi) once daily. […] Plasma total and HDL cholesterol were unaffected by MTPi. Combined treatment of MTPi and lovastatin decreased plasma LDL cholesterol. […] Next, we measured changes in plasma hepatic enzymes (FIGS. 4G-H). […] These studies indicate that apart from lowering plasma triglyceride, MTPi enhances plasma AST/ALT and these increases can be avoided by the co-administration of lovastatin.

[4] = CP-346086 15 mg/kg/day oral 1 week, vs control
[5] = MTP deficient (plpC) Reversa mice, oral 30 days
[6] = plpC-injected Reversa mice, Lova 50, T0 50, WY 10 mg/kg/day oral or Ω-3 FA 3 mg/kg/2 day ip, vs plpC control

For “polyinosinic polycytidylic ribonucleic acid [plpC]”, the “decrease in non-HDL-cholesterol” value ([1]; Reversa mice, plpC vs PBS) was ~40%, the “decrease of plasma total triglyceride and cholesterol” value ([1]; Reversa mice, plpC vs PBS) was 50% and the “increase of hepatic free cholesterol” value ([1]; Reversa mice, plpC vs PBS) was 50%. For the same molecule, the “increase of hepatic triglyceride” value ([1]; Reversa mice, plpC vs PBS) was 2 fold, the “increase of plasma ALT and AST” value ([1]; Reversa mice, plpC vs PBS) was 2-3 fold and the “reduction of hepatic cholesteryl esters (CE)” value ([1]; Reversa mice, plpC vs PBS) was ~30%. The “reduction of hepatic MTP activity compared to controls” value [2] was ~75%.

For `O=C(Nc1ccc2c(c1)CCN(Cc1ncn[nH]1)C2)c1ccccc1-c1ccc(C(F)(F)F)cc1` [CP-346086], the “plasma AST/ALT” value ([3]; CP-346086 15 mg/kg/day 1 week ± lovastatin 50 or WY14643 10 mg/kg/day, MTPi vs control, co-drugs vs MTPi) was “significantly enhanced”, the “Plasma total and HDL cholesterol” value [3, 4] was “unaffected” and the “plasma total and LDL triglyceride, and LDL cholesterol” value [3, 4] was “significantly lower”.

`O=S(=O)(c1ccccc1)N(CC(F)(F)F)c1ccc(C(O)(C(F)(F)F)C(F)(F)F)cc1` [T0901317] was tested, and the plasma cholesterol [1, 5] was “no effect”, the plasma triglycerides [1, 5] was “no effect” and the “hepatic free and total cholesterol” value [1, 6] was “significantly reduced”. For the same molecule, the hepatic triglyceride [1, 6] was “no effect”.
